Assay results reported in article PMC3438171, “Characterization of Isoenzyme-Selective Inhibitors of Human Sphingosine Kinases” (PLoS ONE, 2012).

Assays:
[1] = molecular target: T1, recombinant human SK1 (Homo sapiens, UniProt Q9NYA1); assay: SK activity assay, recombinant human SK1 (ADP-Quest; HPLC assay for SKI-II); format: biochemical; conditions: for mode of inhibition of SK1: substrate competition, Lineweaver-Burk plots; for Ki: recombinant human SK1, mean ± SEM of three independent experiments; for Ki / IC50: ADP-Quest (SKI-II: HPLC assay); for IC50: sphingosine 10 µM, read-out: IC50 for inhibition of SK1
T1 construct: purchased BPS Biosciences
T1 sequence (Q9NYA1 whole entry): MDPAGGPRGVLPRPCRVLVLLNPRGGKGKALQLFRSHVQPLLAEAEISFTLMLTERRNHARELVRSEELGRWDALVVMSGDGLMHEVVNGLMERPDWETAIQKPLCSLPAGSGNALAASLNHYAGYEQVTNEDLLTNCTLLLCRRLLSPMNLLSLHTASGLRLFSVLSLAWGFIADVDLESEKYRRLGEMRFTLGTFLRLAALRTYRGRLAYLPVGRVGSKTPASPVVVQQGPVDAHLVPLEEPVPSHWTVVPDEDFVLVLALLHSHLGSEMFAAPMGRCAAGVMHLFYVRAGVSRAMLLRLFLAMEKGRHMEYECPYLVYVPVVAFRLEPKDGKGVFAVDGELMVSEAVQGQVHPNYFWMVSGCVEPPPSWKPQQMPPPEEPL
Protocol: (§3) The enzymatic activities of recombinant human SK1 or SK2 (purity ≥74% by coomassie staining for each isozyme, BPS Biosciences) were measured using the ADP-Quest kinase assay kit (DiscoveRX Corporation, Fremont, CA) as previously described [34]. […] The reactions were maintained in initial velocity conditions (<5% of the substrate consumed), and data was fitted to the Michaelis–Menten equation by nonlinear regression (Prism 5 for Windows, GraphPad Software). […] For substrate competition analyses, a series of sphingosine concentrations were used and Lineweaver–Burk plots were constructed to define the mode of inhibition.

[2] = molecular target: T2, recombinant human SK2 (Homo sapiens, UniProt Q9NRA0); assay: SK activity assay, recombinant human SK2 (ADP-Quest; HPLC assay for SKI-II); format: biochemical; conditions: for Ki: recombinant human SK2, mean ± SEM of three independent experiments; for Ki / IC50: ADP-Quest (SKI-II: HPLC assay); for IC50: sphingosine 5 µM, read-out: IC50 for inhibition of SK2; for mode of inhibition of SK2: substrate competition, Lineweaver-Burk plots
T2 construct: purchased BPS Biosciences
T2 sequence (Q9NRA0 1-654): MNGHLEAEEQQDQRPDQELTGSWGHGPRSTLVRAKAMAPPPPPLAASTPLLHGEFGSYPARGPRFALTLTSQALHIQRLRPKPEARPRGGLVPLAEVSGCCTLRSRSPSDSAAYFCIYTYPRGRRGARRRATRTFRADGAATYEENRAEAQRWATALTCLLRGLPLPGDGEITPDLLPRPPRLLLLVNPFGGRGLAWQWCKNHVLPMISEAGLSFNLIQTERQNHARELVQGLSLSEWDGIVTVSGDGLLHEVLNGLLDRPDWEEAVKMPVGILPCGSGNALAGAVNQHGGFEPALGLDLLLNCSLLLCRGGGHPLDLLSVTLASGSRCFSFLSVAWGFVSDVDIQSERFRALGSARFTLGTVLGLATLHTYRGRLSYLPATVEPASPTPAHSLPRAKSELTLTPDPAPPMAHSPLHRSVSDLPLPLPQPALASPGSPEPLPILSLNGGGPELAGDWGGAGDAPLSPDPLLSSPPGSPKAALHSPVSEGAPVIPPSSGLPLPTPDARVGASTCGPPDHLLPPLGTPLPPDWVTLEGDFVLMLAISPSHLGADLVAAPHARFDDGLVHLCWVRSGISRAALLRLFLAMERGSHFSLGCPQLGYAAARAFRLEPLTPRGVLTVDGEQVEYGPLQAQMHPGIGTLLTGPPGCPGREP
Protocol: as §3

[3] = tested on: A498 kidney adenocarcinoma cells; assay: Proliferation / cytotoxicity, sulforhodamine assay; format: cell-based; conditions: Homo sapiens, A498, 48 h, read-out: IC50, concentration that reduces cell number by 50%
Protocol: (§4) To assess proliferation, cells were treated with the SK inhibitors for the indicated times, and cell numbers were quantified using the sulforhodamine assay [38]. […] For migration assays, 50,000 cells were placed in each cell culture insert (24-well format, 8 µm pore size, BD Biosciences) for 1 hr at room temperature. For invasion assays, matrigel pre-coated inserts were used as previously described [17]. In both cases, inserts were placed into 24-well plates with 0.3 ml of 10%-serum-containing medium having the same concentration of the inhibitor as the insert. Cells were cultured for 4 hr for migration or 24 hr for invasion assays, and the number of cells that migrated to the underside of the inserts was determined by crystal violet staining as previously described [17].
(§5) A ) Cytotoxicity - After treatment with varying concentrations of the SK inhibitors for the indicated time periods, cell numbers were quantified. […] E ) Cell migration and invasion – After SK inhibitor treatment, cells were harvested and migration, through unmodified filters (open bars) and invasion through Matrigel-coated filters (filled bars), were analyzed. […] Data are the mean ± SEM of three independent experiments. *p<0.05, **p<0.01, ***p<0.001 versus control.

[4] = tested on: SK1 mRNA; assay: SK1 mRNA expression by quantitative PCR in A498 cells; format: cell-based; conditions: inhibitor at its IC50, 48 hr
Protocol: (§1) To assess proliferation, cells were treated with the SK inhibitors for the indicated times, and cell numbers were quantified using the sulforhodamine assay. Expression levels of SK1 and SK2 were measured by quantitative PCR using GAPDH for normalization, as previously described. […] The cell pellets were subjected to sphingolipid profiling by HPLC-MS by the Lipidomics Core Facility at MUSC as described elsewhere. […] For migration assays, 50,000 cells were placed in each cell culture insert (24-well format, 8 µm pore size, BD Biosciences) for 1 hr at room temperature. For invasion assays, matrigel pre-coated inserts were used as previously described. In both cases, inserts were placed into 24-well plates with 0.3 ml of 10%-serum-containing medium having the same concentration of the inhibitor as the insert. Cells were cultured for 4 hr for migration or 24 hr for invasion assays, and the number of cells that migrated to the underside of the inserts was determined by crystal violet staining as previously described.
(§2) Figure 5 Biochemical and phenotypic effects of SK inhibitors. A ) Cytotoxicity - After treatment with varying concentrations of the SK inhibitors for the indicated time periods, cell numbers were quantified. […] B ) SK expression - After SK inhibitor treatment, mRNAs for SK1 (open bars) and SK2 (filled bars) compared to the vehicle controls (DMSO-treated cells) were calculated. C ) Sphingolipid profiling – After SK inhibitor treatment, cells were harvested and sphingolipids were analyzed by mass spectrometric. The bars represent the ratio of the amount of the indicated lipids in drug treated cells compared with control cells. Abbreviations are: C26-ceramide (C26-Cer), C24-ceramide (C24-Cer), C20-ceramide (C20-Cer), C18-ceramide (C18-Cer), C16-ceramide (C16-Cer), sphingosine (Sph) and dihydrosphingosine (dhSph). D ) Cell cycle distribution – After SK inhibitor treatment, cells were harvested and analyzed by flow cytometry. The bars indicate the percentage of cells in each of the indicated cell cycle phases. E ) Cell migration and invasion – After SK inhibitor treatment, cells were harvested and migration, through unmodified filters (open bars) and invasion through Matrigel-coated filters (filled bars), were analyzed. The bars indicate the percentage of cells that had migrated compared to control cells. Data are the mean ± SEM of three independent experiments. *p<0.05, **p<0.01, ***p<0.001 versus control.

[5] = tested on: SK2 mRNA; assay: SK2 mRNA expression by quantitative PCR in A498 cells; format: cell-based; conditions: inhibitor at its IC50, 48 hr
Protocol: as §1, §2

[6] = tested on: A498 kidney adenocarcinoma cells; assay: Sphingolipid profiling by HPLC-MS in A498 cells; format: cell-based; conditions: inhibitor at its IC50, 48 hr
Protocol: as §1, §2

[7] = tested on: A498 kidney adenocarcinoma cells; assay: Cell cycle distribution by flow cytometry; format: cell-based; conditions: inhibitor at its IC50, 48 hr
Protocol: as §2

[8] = tested on: STAT3, AKT, ERK, p21, p53, FAK, Beclin1, LC3 in A498 cells; assay: Western blot of signaling proteins in A498 cells; format: cell-based; conditions: inhibitor at its IC50, 48 hours
Protocol: Following treatment with the SK inhibitors, cells were washed, harvested and lysed, and supernatants were prepared and protein concentrations were determined as previously described. Immunoblotting was carried out with the following primary antibodies (Cell Signaling): AKT, pAKT, ERK1/2, pERK1/2, STAT3, pSTAT3, p21, p53, FAK, pFAK(Y397), Beclin1, LC3, β-actin; and corresponding HRP-conjugated anti-rabbit or anti-mouse secondary antibodies, and immunocomplexes were visualized by the chemiluminescence. Protein expression was quantified by densitometric scanning of the BIOMAX XAR films after normalization to β-actin using the program NIH ImageJ.
Figure 6 Effects of SK inhibitors on signaling proteins. […] Figures are representative blots of at least three independent experiments. B ) Immunoblotting was conducted with the indicated antibodies, and densitometric quantification was done using Image J. Relative expression is represented as the ratio to control after normalization to β-actin.

[9] = tested on: A498 kidney adenocarcinoma cells; assay: Serum-induced migration and invasion (Matrigel) assays; format: cell-based; conditions: inhibitor at its IC50, 48 hr pretreatment, compared with SK1-selective CB5468139
Protocol: as §4, §5

[10] = tested on: panel of 65 protein kinases; assay: Kinase profiling, KinaseSeeker assay; conditions: 2 µM compound; 65 protein kinases tested
Protocol: The inhibitory effects of CB5468139 (2 µM) on the indicated protein kinases were tested using KinaseSeeker assay technology (Luceome Biotech. LLC).

[11] = 100 µM ATP, sphingosine 1.25 to 20 µM, initial velocity conditions

**Q.** Which “mode of inhibition of SK1” value [1] does the source give for CCCCCCCCCCCCC/C=C/[C@@H](O)[C@H](CO)N(C)C [DMS, N,N-dimethyl-D-erythro-sphingosine, reference compound] here?
**A.** The value was “competitive inhibition with respect to sphingosine”.

**Q.** And the Ki [2]?
**A.** The Ki was 14 µM.

**Q.** And the IC50 [2]?
**A.** Its IC50 is roughly 20 µM.

**Q.** And the “mode of inhibition of SK2” value [2]?
**A.** The value was “competitive inhibition with respect to sphingosine”.

**Q.** What about the IC50 [3] of the same molecule?
**A.** The IC50 was 5 µM.

**Q.** And the “SK1 mRNA level compared to vehicle control” value [4]?
**A.** Its value is “tripled”.

**Q.** And the “SK2 mRNA level compared to vehicle control” value [5]?
**A.** The value was “only slightly increased”.

**Q.** And the “effect on levels of ceramides” value [6]?
**A.** Its value is “little impact on the levels of most ceramides”.

**Q.** And the “cells driven into apoptosis” value [7]?
**A.** The value was “approximately 20%”.

**Q.** What about the “effect on cell cycle distribution” value [7] of the same molecule?
**A.** Its value is “did not impact the cell cycle”.

**Q.** What about the “pFAK(Y397) / FAK” value [8] of the same molecule?
**A.** The value was “not altered”.

**Q.** And the “protein levels of p53 and p21” value [8]?
**A.** Its value is “essentially no affect”.

**Q.** Which Ki [2] does the source give for Oc1ccc(Nc2nc(-c3ccc(Cl)cc3)cs2)cc1 [SKI-II, 2-(p-hydroxyanilino)-4-(p-chlorophenyl) thiazole, reference compound] here?
**A.** The Ki was 7.9 ± 0.6 µM.

**Q.** And the IC50 [2]?
**A.** Its IC50 is 20 µM.

**Q.** And the IC50 [3]?
**A.** The IC50 was 20 µM.

**Q.** And the “SK1 mRNA level compared to vehicle control” value [4]?
**A.** The value was roughly 4 fold.

**Q.** What about the “SK2 mRNA level compared to vehicle control” value [5] of the same molecule?
**A.** Its value is roughly 4 fold.

**Q.** What about the “decrease of intracellular S1P compared to control” value [6] of the same molecule?
**A.** Its value is “over 90%”.

**Q.** And the “increase of total ceramide levels” value [6]?
**A.** The value was 30–60%.

**Q.** And the levels of sphingosine [6]?
**A.** Its levels of sphingosine is “dramatically decreased”.

**Q.** And the “effect on cell cycle distribution” value [7]?
**A.** The value was “arrested cells in S phase with a concomitant decrease in the G2/M phase”.

**Q.** What about the “serum-induced migration and invasion” value [9] of the same molecule?
**A.** The value was “more strongly attenuated”.

**Q.** And the ERK2 expression [8]?
**A.** Its ERK2 expression is “decreases of ERK2”.

**Q.** What about the “pFAK(Y397) / FAK” value [8] of the same molecule?
**A.** Its value is “strongly down-regulated”.

**Q.** What about the “protein levels of p53 and p21” value [8] of the same molecule?
**A.** The value was “decreased the protein levels of p53 and p21”.

**Q.** What does the source list for CC(=O)N(C1=C(Cl)C(=O)c2ccccc2C1=O)C1CCCCC1 [CB5468139]?
**A.** Ki [1]: 0.28 ± 0.15 µM; IC50 [1]: ~2 µM; mode of inhibition of SK1 [1]: ATP mimetic; IC50 [2]: > 100 µM; IC50 [3]: 10 µM; SK1 mRNA level compared to vehicle control [4]: Neither ABC294735 nor CB5468139 substantially altered the expression; SK2 mRNA level compared to vehicle control [5]: Neither ABC294735 nor CB5468139 substantially altered the expression; decrease of intracellular S1P compared to control [6]: less than 20%; increase of total ceramide levels [6]: 30–60%; effect on cell cycle distribution [7]: slightly increase the S phase percentage; pFAK(Y397) / FAK [8]: strongly down-regulated; protein levels of p53 and p21 [8]: reduced the expression of p53, but not p21; protein kinases with ≥50% inhibition [10]: 12 of 65

**Q.** diacylglycerol [DAG] was tested. Which IC50 [1] did it give?
**A.** Its IC50 is greater than 100 µM.

**Q.** And the IC50 [2]?
**A.** Its IC50 is greater than 100 µM.

**Q.** What does the source list for O=C(NCCc1ccc(O)c(O)c1)C12CC3CC(C1)CC(c1ccc(Cl)cc1)(C3)C2 [ABC294735]?
**A.** Ki [1]: 3.1 ± 0.8 µM; IC50 [1]: ~10 µM; mode of inhibition of SK1 [1]: sphingosine-competitive inhibitor; Ki [2]: 4.2 ± 0.6 µM; IC50 [2]: ~10 µM; mode of inhibition of SK2 [2]: sphingosine-competitive inhibitor; IC50 [3]: 35 µM; SK1 mRNA level compared to vehicle control [4]: Neither ABC294735 nor CB5468139 substantially altered the expression; SK2 mRNA level compared to vehicle control [5]: Neither ABC294735 nor CB5468139 substantially altered the expression; effect on cell cycle distribution [7]: slightly increase the S phase percentage

**Q.** For O=C(NCc1ccncc1)C12CC3CC(C1)CC(c1ccc(Cl)cc1)(C3)C2 [ABC294640], which IC50 [1] is on record?
**A.** Its IC50 is greater than 100 µM.

**Q.** And the Ki [2]?
**A.** The Ki was 9.3 µM.

**Q.** And the IC50 [2]?
**A.** The IC50 was roughly 40 µM.

**Q.** And the “mode of inhibition of SK2” value [2]?
**A.** The value was “sphingosine-competitive inhibitor”.

**Q.** What about the IC50 [3] of the same molecule?
**A.** The IC50 was 40 µM.

**Q.** And the “SK1 mRNA level compared to vehicle control” value [4]?
**A.** Its value is “approximately 5 fold”.

**Q.** What about the “SK2 mRNA level compared to vehicle control” value [5] of the same molecule?
**A.** The value was “strongly increased”.

**Q.** And the “decrease of intracellular S1P compared to control” value [6]?
**A.** Its value is “over 90%”.

**Q.** And the levels of sphingosine [6]?
**A.** The levels of sphingosine was “dramatically decreased”.

**Q.** What about the “total ceramides relative to control cells” value [6] of the same molecule?
**A.** The value was 2 times the level of control cells.

**Q.** What about the “effect on cell cycle distribution” value [7] of the same molecule?
**A.** The value was “distinct G1 arrest with significant decreases in both S and G2/M phases”.

**Q.** What about the “serum-induced migration and invasion” value [9] of the same molecule?
**A.** The value was “more strongly attenuated”.

**Q.** And the ERK2 expression [8]?
**A.** The ERK2 expression was “decreases of ERK2”.

**Q.** And the “STAT3 expression and activation (pSTAT3)” value [8]?
**A.** The value was “largest decrease”.

**Q.** And the “expression of autophagy markers beclin1 and LC3” value [8]?
**A.** Its value is “most pronounced increases”.

**Q.** And the pAKT level [8]?
**A.** Its pAKT level is “decreased dramatically”.

**Q.** What about the “pFAK(Y397) / FAK” value [8] of the same molecule?
**A.** The value was “strongly down-regulated”.

**Q.** And the “protein levels of p53 and p21” value [8]?
**A.** Its value is “decreased the protein levels of p53 and p21”.

**Q.** What does the source list for CCCCCCCCCCCCC/C=C/[C@@H](O)[C@@H](N)CO [sphingosine]?
**A.** Km [1, 11]: 10 ± 0.45 µM; Km [2, 11]: 5 ± 0.36 µM
